Measured values taken from publication PMC7170309, “Imidazopyridine-fused [1,3]diazepinones: modulations of positions 2 to 4 and their impacts on the anti-melanoma activity” (Journal of Enzyme Inhibition and Medicinal Chemistry, 2020).
pIC50: −log10 of the molar value.

How the values were obtained:
[1] = tested on: NIH-3T3 non-cancerous cells; experiment: Neutral red uptake (NRU) toxicity assay, NIH-3T3; format: cell-based; conditions: Mus musculus, NIH3T3, 72 h, non-cancerous mouse fibroblasts
Method: Melanoma human cancer cell line (A375 and MDA-MB-435) were obtained from ATCC. The NIH-3T3 cell line was generously gifted by the ANSM (French National Agency for Medicines and Health Products Safety, Vendargues, France). Cells were cultured in Dulbecco’s Modified Eagle Medium (DMEM, Sigma Aldrich) supplemented with 10% heat-inactivated foetal calf serum (FCS, Gibco), 2 mM glutamax (Gibco), 100 IU/mL penicillin G sodium (Sigma Aldrich), 100 lU/mL streptomycin sulphate (Sigma Aldrich). The cells were allowed to grow at 37 °C in a fully humidified atmosphere containing 5% CO2.
A viability assay was used to evaluate the cytotoxic activity on A375 and MDA-MB-435 melanoma cells as previously described. According to OCDE/ICCVAM guidance n°129, NRU assay was also used to evaluate the toxicity on the non-cancerous NIH-3T3 cells. Cells were seeded at a final concentration of 2000 cells/well (A375), 3000 cells/well (NIH-3T3) or 7500 cells/well (MDA-MB-435) in 96-well microtiter plates for 24 h. Then, cells were exposed to two negative controls (1% DMSO in culture medium (vehicle) and culture medium alone), or to different compounds freshly dissolved in DMSO, in a range of concentration from 0.01 to 40 µM (six wells per concentration). After 72 h of incubation, cells were stained with new medium containing 50 µg/mL of neutral red (3-amino-7-dimethylamino-2-methylphenazine hydrochloride, Sigma Aldrich) at 37 °C for 2 h. The neutral red medium solution was then removed and the wells were washed with PBS. Finally, 100 µL of solution containing ethanol, acetic acid and water (50/1/49 v/v/v respectively) were added into the wells and the absorbance was measured at 540 nm using the microplate reader 352 Multiscan MS (Labsystems). Cell survival rates were normalised to the absorbance values of untreated control cells. IC50 was obtained using a logistic regression model on Graphpad Prism 5.0 software. Results are given as the mean ± standard deviation (SD) of three independent experiments. Statistical analysis was performed using the Student’s t-test.
Then, all active compounds on the two melanoma cell lines (IC50 < 40 µM) were assessed on the NIH-3T3 mouse fibroblast cell line, in order to check the toxicity of our compounds on non-cancerous cells. […] As a possible modification of the mechanism of action was hypothesised for these two derivatives (see above), this phenomenon could probably be also correlated with the cytotoxicity observed on the NIH-3T3 cell line.

[2] = tested on: NCI-60 cancer cell line panel; experiment: NCI-60 SRB assay, whole panel; format: cell-based, human; conditions: 10 µM, 48 h
Method: (§1) Primary anticancer assay was performed on a panel of 60 human cancer cell lines derived from nine neoplastic diseases, in accordance with the protocol of the Drug Evaluation Branch, National Cancer Institute, Bethesda, Maryland, USA[22]. Cells were incubated with tested compounds at 10 µM for 48 h. The growth percentage was evaluated spectrophotometrically using a protein binding dye, SRB. Results for each tested compound were reported as the percent of growth of treated cells when compared to untreated control cells.
(§2) To better compare the activity profile of these two series of compounds, compounds 5 and 8 were selected and then evaluated towards a panel of sixty cancer cell lines corresponding to nine different cancer types, i.e. leukaemia, melanoma, as well as lung, colon, central nervous system, ovarian, renal, prostate and breast cancers (NCI evaluation). Indeed, it is now well established that the growth inhibitory patterns of anticancer drugs against the NCI-60 cell line panel correlated well with their modes of action. For example, compounds that bind to tubulin have similar growth inhibition patterns regardless of which site on tubulin they bind[30]. […] Compounds were tested using the sulforhodamine B (SRB) assay that provides a direct cell density index. The amount of dye incorporated by the cells increases with the increase of the total protein biomass. Cells were incubated for 48 h with compounds at 10 µM concentration, then cell growth was evaluated spectrophotometrically and presented as the percent of untreated control cells. Values of the most sensitive cell lines were compared to those obtained with JMV5038 (Figure 4, for all data see SI).

HOP-62 = experiment: NCI-60 SRB assay, HOP-62 (NSCLC); format: cell-based, human; conditions: 10 µM, 48 h; for G%: growth vs untreated control;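 on Mean G% - G%: mean growth across the NCI-60 panel minus this line's growth with positive meaning more sensitive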
Method: as §1, §2

NCI-H226 = experiment: NCI-60 SRB assay, NCI-H226 (NSCLC); format: cell-based, human; conditions: 10 µM, 48 h; for G%: growth vs untreated control
Method: as §1, §2

NCI-H322M = experiment: NCI-60 SRB assay, NCI-H322M (NSCLC); format: cell-based, human; conditions: 10 µM, 48 h; for G%: growth vs untreated control
Method: as §1, §2

NCI-H522 = experiment: NCI-60 SRB assay, NCI-H522 (NSCLC); format: cell-based, human; conditions: 10 µM, 48 h; for G%: growth vs untreated control
Method: as §1, §2

COLO 205 = experiment: NCI-60 SRB assay, COLO 205 (Colon Cancer); format: cell-based, human; conditions: 10 µM, 48 h; for G%: growth vs untreated control
Method: as §1, §2

HT29 = experiment: NCI-60 SRB assay, HT29 (Colon Cancer); format: cell-based, human; conditions: 10 µM, 48 h; for G%: growth vs untreated control;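 on Mean G% - G%: mean growth across the NCI-60 panel minus this line's growth with positive meaning more sensitive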
Method: as §1, §2

SF-295 = experiment: NCI-60 SRB assay, SF-295 (CNS Cancer); format: cell-based, human; conditions: 10 µM, 48 h; for G%: growth vs untreated control
Method: as §1, §2

SF-539 = experiment: NCI-60 SRB assay, SF-539 (CNS Cancer); format: cell-based, human; conditions: 10 µM, 48 h; for G%: growth vs untreated control
Method: as §1, §2

SNB-19 = experiment: NCI-60 SRB assay, SNB-19 (CNS Cancer); format: cell-based, human; conditions: 10 µM, 48 h; for G%: growth vs untreated control
Method: as §1, §2

LOX IMVI = experiment: NCI-60 SRB assay, LOX IMVI (Melanoma); format: cell-based, human; conditions: 10 µM, 48 h; for G%: growth vs untreated control
Method: as §1, §2

MALME-3M = experiment: NCI-60 SRB assay, MALME-3M (Melanoma); format: cell-based, human; conditions: 10 µM, 48 h; for G%: growth vs untreated control
Method: as §1, §2

SK-MEL-2 = experiment: NCI-60 SRB assay, SK-MEL-2 (Melanoma); format: cell-based, human; conditions: 10 µM, 48 h; for G%: growth vs untreated control
Method: as §1, §2

SK-MEL-28 = experiment: NCI-60 SRB assay, SK-MEL-28 (Melanoma); format: cell-based, human; conditions: 10 µM, 48 h; for G%: growth vs untreated control
Method: as §1, §2

UACC-62 = experiment: NCI-60 SRB assay, UACC-62 (Melanoma); format: cell-based, human; conditions: 10 µM, 48 h; for G%: growth vs untreated control
Method: as §1, §2

IGROV1 = experiment: NCI-60 SRB assay, IGROV1 (Ovarian Cancer); format: cell-based, human; conditions: 10 µM, 48 h; for G%: growth vs untreated control
Method: as §1, §2

OVCAR-3 = experiment: NCI-60 SRB assay, OVCAR-3 (Ovarian Cancer); format: cell-based, human; conditions: 10 µM, 48 h; for G%: growth vs untreated control;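 on Mean G% - G%: mean growth across the NCI-60 panel minus this line's growth with positive meaning more sensitive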
Method: as §1, §2

NCI/ADR-RES = experiment: NCI-60 SRB assay, NCI/ADR-RES (Ovarian Cancer); format: cell-based, human; conditions: 10 µM, 48 h; for G%: growth vs untreated control;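 on Mean G% - G%: mean growth across the NCI-60 panel minus this line's growth with positive meaning more sensitive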
Method: as §1, §2

A498 = experiment: NCI-60 SRB assay, A498 (Renal Cancer); format: cell-based, human; conditions: 10 µM, 48 h; for G%: growth vs untreated control
Method: as §1, §2

SN12C = experiment: NCI-60 SRB assay, SN12C (Renal Cancer); format: cell-based, human; conditions: 10 µM, 48 h; for G%: growth vs untreated control
Method: as §1, §2

PC-3 = experiment: NCI-60 SRB assay, PC-3 (Prostate Cancer); format: cell-based, human; conditions: 10 µM, 48 h; for G%: growth vs untreated control
Method: as §1, §2

Structure (SMILES): C[C@@H]1NC(c2ccc(N=[N+]=[N-])cc2)=Nc2nc3ccccn3c2C1=O [Compound 5, (4S)-4-methyl-2-(4-azidophenyl)-3,4-dihydro-5H-pyrido[1’,2’:1,2]imidazo[4,5-d][1,3]diazepin-5-one]
- pIC50 [1]: < 4.40
- Mean G% (mean growth over the panel) [2]: 85,26%
- Mean G% - G% (HOP-62): 6,31%
- G% (HOP-62): 78,95%
- Mean G% - G% (NCI-H226): -3,88%
- G% (NCI-H226): 89,14%
- Mean G% - G% (NCI-H322M): -10,63%
- G% (NCI-H322M): 95,89%
- Mean G% - G% (NCI-H522): 13,32%
- G% (NCI-H522): 71,94%
- Mean G% - G% (COLO 205): 5,95%
- G% (COLO 205): 79,31%
- Mean G% - G% (HT29): 10,46%
- G% (HT29): 74,80%
- Mean G% - G% (SF-295): -8,18%
- G% (SF-295): 93,44%
- Mean G% - G% (SF-539): -2,57%
- G% (SF-539): 87,83%
- Mean G% - G% (SNB-19): -4,44%
- G% (SNB-19): 89,70%
- Mean G% - G% (LOX IMVI): 4,81%
- G% (LOX IMVI): 80,45%
- Mean G% - G% (MALME-3M): 3,28%
- G% (MALME-3M): 81,98%
- Mean G% - G% (SK-MEL-2): -9,12%
- G% (SK-MEL-2): 94,38%
- Mean G% - G% (SK-MEL-28): -9,13%
- G% (SK-MEL-28): 94,39%
- Mean G% - G% (UACC-62): 17,97%
- G% (UACC-62): 67,29%
- Mean G% - G% (IGROV1): 10,76%
- G% (IGROV1): 74,50%
- Mean G% - G% (OVCAR-3): -12,28%
- G% (OVCAR-3): 97,54%
- Mean G% - G% (NCI/ADR-RES): 11,92%
- G% (NCI/ADR-RES): 73,34%
- Mean G% - G% (A498): -14,16%
- G% (A498): 99,42%
- Mean G% - G% (SN12C): -18,28%
- G% (SN12C): 103,54%
- Mean G% - G% (PC-3): -10,97%
- G% (PC-3): 96,23%

Structure (SMILES): C[C@@H]1NC(c2csc3ccccc23)=Nc2nc3ccccn3c2C1=O [Compound 8, (4S)-4-methyl-2-benzothiophen-3-yl-3,4-dihydro-5H-pyrido[1’,2’:1,2]imidazo[4,5-d][1,3]diazepin-5-one]
- pIC50 [1]: < 4.40
- Mean G% (mean growth over the panel) [2]: 74.87%
- Mean G% - G% (HOP-62): 23,74%
- G% (HOP-62): 51,13%
- Mean G% - G% (NCI-H226): 2,63%
- G% (NCI-H226): 72,24%
- Mean G% - G% (NCI-H322M): 10,06%
- G% (NCI-H322M): 64,81%
- Mean G% - G% (NCI-H522): -20,45%
- G% (NCI-H522): 95,32%
- Mean G% - G% (COLO 205): -25,43%
- G% (COLO 205): 100,30%
- Mean G% - G% (HT29): -10,58%
- G% (HT29): 85,45%
- Mean G% - G% (SF-295): -8,66%
- G% (SF-295): 83,53%
- Mean G% - G% (SF-539): -1,87%
- G% (SF-539): 76,74%
- Mean G% - G% (SNB-19): -4,95%
- G% (SNB-19): 79,82%
- Mean G% - G% (LOX IMVI): -18,67%
- G% (LOX IMVI): 93,54%
- Mean G% - G% (MALME-3M): -0,21%
- G% (MALME-3M): 75,08%
- Mean G% - G% (SK-MEL-2): -20,08%
- G% (SK-MEL-2): 94,95%
- Mean G% - G% (SK-MEL-28): -23,33%
- G% (SK-MEL-28): 98,20%
- Mean G% - G% (UACC-62): -12,07%
- G% (UACC-62): 86,94%
- Mean G% - G% (IGROV1): 14,89%
- G% (IGROV1): 59,98%
- Mean G% - G% (OVCAR-3): -5,26%
- G% (OVCAR-3): 80,13%
- Mean G% - G% (NCI/ADR-RES): -2,84%
- G% (NCI/ADR-RES): 77,71%
- Mean G% - G% (A498): 13,54%
- G% (A498): 61,33%
- Mean G% - G% (SN12C): -9,24%
- G% (SN12C): 84,11%
- Mean G% - G% (PC-3): -2,69%
- G% (PC-3): 77,56%
